Results on 42 compounds are retold here after patent US6774235B2, “Trisubstituted 1,3,5-triazine derivatives” (Janssen Pharmaceutica N.V., priority 1998, dated 2004).

For one data set, the system named is HIV-1 (wildtype IIIB). Description: microbe, parasite or virus in culture. In kind it is cell-based. Particulars: dose achieving 50% protection of HIV-1 (IIIB) infected MT-4 cells, MTT, OD 540 nm. The protocol: (§1) A rapid, sensitive and automated assay procedure was used for the in vitro evaluation of anti-HIV agents. An HIV-1 (wildtype IIIB) transformed T4-cell line, MT-4, which was previously shown (Koyanagi et al., Int. J Cancer, 36, 445-451, 1985) to be highly susceptible to and permissive for HIV infection, served as the target cell line. Inhibition of the HIV-induced cytopathic effect was used as the end point. […] The percent protection achieved by the compound in HIV-infected cells was calculated by the following formula: [formula]
(§2) whereby (ODT)HIV is the optical density measured with a given concentration of the test compound in HIV-infected cells; (ODC)HIV is the optical density measured for the control untreated HIV-infected cells; (ODC)MOCK is the optical density measured for the control untreated mock-infected cells; all optical density values were determined at 540 nm. […] The ratio of CC50 to IC50 was defined as the selectivity index (SI).

The subject of the next data set is MT-4. Description: Cytotoxicity in mock-infected MT-4 cells (MTT). The protocol: as §1, §2
Where [1] appears, read: concentration reducing absorbance of mock-infected MT-4 control by 50%, MTT.

Like-named read-outs stand apart in the source and are kept apart here. Bounds are passed on as bounds.

For the compound `Cc1cc(Nc2nc(N)nc(Nc3ccc(C#N)cc3)n2)c(Cl)cc1F` [Compound 66], half-maximal inhibition with HIV-1 (wildtype IIIB) (IC50) required 96 nM. The CC50 (commonly the concentration at which the toxic effect on the cells reaches its halfway point) with MT-4 was > 99900 nM.
Turning to `N#Cc1ccc(Nc2nc(N)nc(NNc3c(Cl)cccc3Cl)n2)cc1` [Compound 22], the IC50 (commonly the concentration needed to halve the response being measured) with HIV-1 (wildtype IIIB) is 3 nM. Also, the CC50 in the data set with MT-4 was > 100000 nM.
As to `Cc1c(C)c(Oc2nc(N)nc(Nc3ccc(C#N)cc3)n2)c(Cl)c(C)c1Cl` [Compound 53], half-maximal inhibition in the data set with HIV-1 (wildtype IIIB) (IC50) required 17 nM. This compound also registered a CC50 in the data set with MT-4 of 2500 nM.
The matching figures for `Cc1cc(Cl)c(C)c(C)c1Oc1nc(N)nc(Nc2ccc(C#N)cc2)n1` [Compound 52]: 3 nM and 1900 nM.
In the data set with HIV-1 (wildtype IIIB), `Cc1ccc(Sc2nc(N)nc(Nc3ccc(C#N)cc3)n2)c(C)c1` [Compound 59] gave an IC50 of 2 nM. In the data set on MT-4, this compound came in with a CC50 of 48500 nM.
With `N#Cc1ccc(Nc2nc(N)nc(Oc3c(F)c(F)c(O)c(F)c3F)n2)cc1` [Compound 80], in the data set with HIV-1 (wildtype IIIB), the IC50 came to 85500 nM. Also, the CC50 in the data set with MT-4 (setting [1]) was > 85500 nM.
In the data set on HIV-1 (wildtype IIIB), `N#Cc1ccc(Nc2nc(N)nc(Nc3c(Cl)cc(Cl)cc3Cl)n2)cc1` [Compound 18] displayed an IC50 of 8 nM. Besides, the CC50 with MT-4 was 45600 nM.
Consider `CC(=O)c1ccc(C)cc1Nc1nc(N)nc(Nc2ccc(C#N)cc2)n1` [Compound 13], for which the IC50 with HIV-1 (wildtype IIIB) was 259 nM. In addition, the 50% cytotoxic concentration (CC50) in the data set on MT-4 is > 100000 nM.
Compound `N#Cc1ccc(Nc2nc(N)nc(Oc3c(Cl)c(Cl)c(Cl)c(Cl)c3Cl)n2)cc1` [Compound 42] yielded an IC50 in the data set with HIV-1 (wildtype IIIB) of 33 nM. Besides, in the data set with MT-4, the CC50 is > 10000 nM.
`CC(=O)c1cc(F)cc(F)c1Oc1nc(N)nc(Nc2ccc(C#N)cc2)n1` [Compound 49] returned an IC50 with HIV-1 (wildtype IIIB) of 76 nM. In the data set with MT-4, the CC50 was > 99900 nM.
In the data set with HIV-1 (wildtype IIIB), `CCc1cc(Br)cc(CC)c1Nc1nc(N)nc(Nc2ccc(C#N)cc2)n1` [Compound 64] showed an IC50 of 14 nM. Further, in the data set with MT-4, the midpoint of cytotoxicity, the CC50, lay at 46500 nM.
Compound `N#Cc1ccc(Nc2nc(N)nc(Oc3c(F)cc(F)cc3F)n2)cc1` [Compound 44] yielded an IC50 with HIV-1 (wildtype IIIB) of 5 nM. Further, the half-maximal cytotoxic concentration (CC50) in the data set on MT-4 was > 100000 nM.
In the case of `Cc1c(Br)c(C)c(Br)c(Oc2nc(N)nc(Nc3ccc(C#N)cc3)n2)c1Br` [Compound 50], half-maximal inhibition in the data set with HIV-1 (wildtype IIIB) (IC50) was put at 59 nM. Further, in the data set with MT-4, the CC50 worked out at 8100 nM.
Consider `Cc1c(Cl)cc(N)c(Oc2nc(N)nc(Nc3ccc(C#N)cc3)n2)c1Cl` [Compound 81], for which 2680 nM corresponded to half-maximal inhibition with HIV-1 (wildtype IIIB) (IC50). Also, the CC50 in the data set on MT-4 was > 99100 nM.
The matching figures for `Cc1cc(C)c(Nc2nc(N)nc(Nc3ccc(C#N)cc3)n2)c(C)c1Br` [Compound 15]: 3 nM and 1700 nM.
Compound `CCc1cccc(CC)c1Nc1nc(N)nc(Nc2ccc(C#N)cc2)n1` [Compound 12] showed an IC50 in the data set with HIV-1 (wildtype IIIB) of 21 nM. In the data set with MT-4, this compound yielded a CC50 of 30000 nM.
On the same counts, the results for `CC(=O)c1cc(Cl)cc(Cl)c1Oc1nc(N)nc(Nc2ccc(C#N)cc2)n1` [Compound 39] are > 10000 nM and < 10000 nM.
In the data set with HIV-1 (wildtype IIIB), `Cc1cc(C)c(N=Nc2nc(N)nc(Nc3ccc(C#N)cc3)n2)c(C)c1` [Compound 69, 4-[[4-amino-6-[(2,4,6-trimethylphenyl)azo]-1,3,5-triazin-2-yl]aamino]benzonitrile] registered an IC50 of 65 nM. The CC50 with MT-4 (setting [1]) was > 99900 nM.
For `Cc1cccc(C(C)C)c1Nc1nc(N)nc(Nc2ccc(C#N)cc2)n1` [Compound 8], the IC50 in the data set with HIV-1 (wildtype IIIB) amounted to 165 nM. In the data set with MT-4, it took 9300 nM to reach half-maximal cytotoxicity (CC50).
In the case of `N#Cc1ccc(Nc2nc(N)nc(Nc3c(Br)cc(Br)cc3Br)n2)cc1` [Compound 72], the midpoint of inhibition with HIV-1 (wildtype IIIB), the IC50, lay at 2 nM. The compound also showed a CC50 in the data set on MT-4 of 6500 nM.
`N#Cc1ccc(Nc2nc(N)nc(NNc3c(Cl)cc(Cl)cc3Cl)n2)cc1` [Compound 21]: the IC50 in the data set with HIV-1 (wildtype IIIB) came out at 1 nM. In the data set with MT-4, this compound gave a CC50 of 27800 nM.
With `N#Cc1ccc(Nc2nc(N)nc(Oc3ccc(Cl)cc3Cl)n2)cc1` [Compound 38], the IC50 with HIV-1 (wildtype IIIB) was 7 nM. The CC50 in the data set with MT-4 is > 100000 nM.
The matching figures for `N#Cc1ccc(Nc2nc(NO)nc(Nc3c(Cl)cccc3Cl)n2)cc1` [Compound 4, 4-[[[6-(2,6-dichlorophenylamino)-4-(hydroxylamino)]-1,3,5-triazin-2-yl]amino]-benzonitrile]: 2 nM and 8000 nM.
Turning to `N#Cc1ccc(Nc2nc(N)nc(Nc3c(F)cc(F)cc3Br)n2)cc1` [Compound 17], the midpoint of inhibition with HIV-1 (wildtype IIIB), the IC50, lay at 3 nM. This compound returned a CC50 with MT-4 of 53800 nM.
The matching figures for `N#Cc1ccc(Nc2nc(N)nc(Oc3c(Cl)cc(Cl)cc3Cl)n2)cc1` [Compound 30]: 2 nM and 63500 nM.
For the compound `N#Cc1ccc(Nc2nc(N)nc(Nc3c(Cl)cccc3Cl)n2)cc1` [Compound 10], half-maximal inhibition with HIV-1 (wildtype IIIB) (IC50) was put at 3 nM. For the same compound, in the data set with MT-4, the CC50 came out at 6100 nM.
The matching figures for `N#Cc1ccc(Nc2nc(N)nc(Oc3c(Cl)cc(F)cc3Cl)n2)cc1` [Compound 45]: 7 nM and 52900 nM.
In the data set on HIV-1 (wildtype IIIB), `Cc1cc(Br)c(Nc2nc(Nc3ccc(C#N)cc3)nc(Nc3ccc(C#N)cc3)n2)c(Br)c1` [Compound 74, N,-[6-[(2,6-dibromo-4-methylphenyl)amino]-1,3,5-triazine-2,4-diyl]bis[4-amino-benzonitrile]] had an IC50 of 190 nM. The CC50 in the data set on MT-4 came out at 7000 nM.
In the data set on HIV-1 (wildtype IIIB), `N#Cc1ccc(Nc2nc(N)nc(Nc3c(Cl)cc(C(F)(F)F)cc3Cl)n2)cc1` [Compound 70] displayed an IC50 of 3 nM. In the data set on MT-4, this compound displayed a CC50 of 15600 nM.
On the same counts, the results for `Cc1cc(C)c(Sc2nc(N)nc(Nc3ccc(C#N)cc3)n2)c(C)c1` [Compound 58] are 3 nM and 47100 nM.
`Cc1ccc(Cl)c(C)c1Nc1nc(NO)nc(Nc2ccc(C#N)cc2)n1` [Compound 31] yielded an IC50 in the data set with HIV-1 (wildtype IIIB) of 5 nM. Besides, in the data set on MT-4, the midpoint of cytotoxicity, the CC50, lay at 9900 nM.
`N#Cc1ccc(Nc2nc(N)nc(Oc3c(Cl)ccc(Cl)c3Cl)n2)cc1` [Compound 43] returned an IC50 with HIV-1 (wildtype IIIB) of 9 nM. In the data set on MT-4, half-maximal cytotoxicity (CC50) was put at 43900 nM.
In the case of `Cc1c(Cl)c(C)c(Br)c(Oc2nc(N)nc(Nc3ccc(C#N)cc3)n2)c1Br` [Compound 48], the IC50 in the data set with HIV-1 (wildtype IIIB) is 19 nM. This compound also returned a CC50 in the data set with MT-4 of 8700 nM.
Regarding `Cc1cc(C)c(Nc2nc(N)nc(Nc3ccc(C#N)cc3)n2)c(C)c1N` [Compound 61], the IC50 with HIV-1 (wildtype IIIB) came to 5 nM. The compound further displayed a CC50 in the data set on MT-4 of 94600 nM.
As to `Cc1ccc(Cl)c(C)c1Nc1nc(N)nc(Nc2ccc(C#N)cc2)n1` [Compound 28], half-maximal inhibition in the data set with HIV-1 (wildtype IIIB) (IC50) required 5 nM. Besides, the CC50 in the data set with MT-4 was found to be 42800 nM.
On to `Cc1cc(Cl)cc(Cl)c1Oc1nc(N)nc(Nc2ccc(C#N)cc2)n1` [Compound 34], for which the IC50 with HIV-1 (wildtype IIIB) turned out to be 1 nM. In the data set on MT-4, this compound yielded a CC50 of 4800 nM.
In turn, `N#Cc1ccc(Nc2nc(N)nc(Sc3cc(Cl)c(Cl)cc3Cl)n2)cc1` [Compound 56] registered an IC50 in the data set with HIV-1 (wildtype IIIB) of 5 nM. The compound further came in with a CC50 in the data set on MT-4 of 62600 nM.
Turning to `Cc1cc(I)cc(C)c1Oc1nc(N)nc(Nc2ccc(C#N)cc2)n1` [Compound 60], in the data set on HIV-1 (wildtype IIIB), the IC50 was 3 nM. In the data set with MT-4, this compound registered a CC50 of 45500 nM.
The compound `N#Cc1ccc(Nc2nc(N)nc(Oc3c(Cl)cccc3Cl)n2)cc1` [Compound 1] gave an IC50 with HIV-1 (wildtype IIIB) of 3 nM. In the data set with MT-4, the CC50 was > 20000 nM.
With `Cc1ccc(Oc2nc(N)nc(Nc3ccc(C#N)cc3)n2)c(C)c1` [Compound 62], inhibition with HIV-1 (wildtype IIIB) was half-maximal at 3 nM (IC50). The compound also registered a CC50 in the data set with MT-4 of 51600 nM.
`N#Cc1ccc(Nc2nc(N)nc(Nc3c(F)c(F)c(F)c(F)c3F)n2)cc1` [Compound 67]: it took 111 nM to reach half-maximal inhibition in the data set with HIV-1 (wildtype IIIB) (IC50). The compound also registered a CC50 in the data set on MT-4 of 45600 nM.
On the same counts, the results for `N#Cc1ccc(Nc2nc(NO)nc(Sc3c(Cl)cccc3Cl)n2)cc1` [Compound 20] are 3 nM and 11700 nM.
